# Measured values taken from US12172990B2 (Constellation Pharmaceuticals, Inc., priority 2018, dated 2024).
# Experiments:
# [1] = target: full length human TREX1 (Homo sapiens (Human), UniProt Q9NSU2); assay: TREX1 Biochemical Assay (fluorescence assay measuring degradation of dsDNA substrate); conditions: 150 pM TREX1, 60 nM dsDNA substrate, 25 minutes at room temperature
# Protocol: Degradation of the dsDNA liberates free fluorophore to produce a fluorescent signal. Specifically, 7.5 μL of N-terminally His-Tev tagged full length human TREX1 (expressed in E. coli and purified in house) in reaction buffer (50 mM Tris (pH 7.4), 150 mM NaCl, 2 mM DTT, 0.1 mg/mL BSA, 0.01% (v/v) Tween-20 and 100 mM MgCl2 were added to a 384-well Black ProxiPlate Plus (Perkin Elmer) which already contained compound (150 nL) at varying concentrations as a 10 point dose-response in DMSO. To this was added 7.5 μL of dsDNA substrate (Strand A: 5′ TEX615/GCT AGG CAG 3′; Strand B: 5′ CTG CCT AGC/IAbRQSp (Integrated DNA Technologies)) in reaction buffer. Final concentrations were 150 pM TREX1, 60 nM dsDNA substrate in reaction buffer with 1.0% DMSO (v/v). After 25 minutes at room temperature, reactions were quenched by the addition of 5 μL of stop buffer (same as reaction buffer plus 200 mM EDTA). Final concentrations in the quenched reaction were 112.5 pM TREX1, 45 nM DNA and 50 mM EDTA in a volume of 20 μL. After a 5-minute incubation at room temperature, plates were read in a laser sourced Envision (Perkin-Elmer), measuring fluorescence at 615 nm following excitation w/570 nm light. IC50 values were calculated by comparing the measured fluorescence at 615 nm ratio relative to control wells pre-quenched w/stop buffer (100% inhibition) and no inhibitor (0% inhibition) controls as using non-linear least square four parameter fits and either Genedata or GraphPad Prism (GraphPad Software, Inc.).
# [2] = target: human TREX2 (residues M44-A279) (Homo sapiens (Human), UniProt Q9BQ50); assay: TREX2 Biochemical Assay (fluorescence assay measuring degradation of dsDNA substrate); conditions: 2.5 nM TREX2, 60 nM dsDNA substrate, 25 minutes at room temperature
# Protocol: Degradation of the dsDNA liberates free fluorophore to produce a fluorescent signal. Specifically, 7.5 μL of N-terminally His-Tev tagged human TREX2 (residues M44-A279, expressed in E. coli and purified in house) in reaction buffer (50 mM Tris (pH 7.4), 150 mM NaCl, 2 mM DTT, 0.1 mg/mL BSA, 0.01% (v/v) Tween-20 and 100 mM MgCl2) was added to a 384-well Black ProxiPlate Plus (Perkin Elmer) which already contained compound (150 nL) at varying concentrations as a 10 point dose-response in DMSO. To this was added 7.5 μL of dsDNA substrate (Strand A: 5′ TEX615/GCT AGG CAG 3′; Strand B: 5′ CTG CCT AGC/IAbRQSp (IDT)) in reaction buffer. Final concentrations were 2.5 nM TREX2, 60 nM dsDNA substrate in reaction buffer with 1.0% DMSO (v/v). After 25 minutes at room temperature, reactions were quenched by the addition of 5 μL of stop buffer (same as reaction buffer plus 200 mM EDTA). Final concentrations in the quenched reaction mixture were […] TREX2, 45 nM DNA and 50 mM EDTA in a volume of 20 μL. After a 5-minute incubation at room temperature, plates were read in a laser sourced Envision (Perkin-Elmer), measuring fluorescence at 615 nm following excitation w/570 nm light. IC50 values were calculated by comparing the measured fluorescence at 615 nm ratio relative to control wells pre-quenched w/stop buffer (100% inhibition) and no inhibitor (0% inhibition) controls as using non-linear least square four parameter fits and either Genedata or GraphPad Prism (GraphPad Software, Inc.).
# full length human TREX1, sequence (Q9NSU2 whole entry): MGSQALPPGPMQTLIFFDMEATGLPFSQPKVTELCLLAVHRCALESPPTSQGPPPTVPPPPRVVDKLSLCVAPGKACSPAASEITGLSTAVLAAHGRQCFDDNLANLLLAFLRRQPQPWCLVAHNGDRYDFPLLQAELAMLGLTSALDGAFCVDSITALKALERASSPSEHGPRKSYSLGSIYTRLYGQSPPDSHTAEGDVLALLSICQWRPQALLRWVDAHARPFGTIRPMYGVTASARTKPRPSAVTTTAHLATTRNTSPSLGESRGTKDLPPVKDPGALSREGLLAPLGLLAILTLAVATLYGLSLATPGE
# human TREX2 (residues M44-A279), sequence (Q9BQ50 whole entry, the tested form may be a part): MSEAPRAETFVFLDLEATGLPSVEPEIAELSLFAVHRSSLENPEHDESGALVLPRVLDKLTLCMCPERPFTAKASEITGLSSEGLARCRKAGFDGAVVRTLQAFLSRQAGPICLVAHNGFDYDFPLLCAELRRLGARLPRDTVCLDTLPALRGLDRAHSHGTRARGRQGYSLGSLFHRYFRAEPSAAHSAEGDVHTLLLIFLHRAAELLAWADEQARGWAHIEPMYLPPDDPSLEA
IC50 [1],IC50 [2],SMILES
0.1 to 1 µM,10 to 100 µM,"CN(C)C(=O)[C@H]1CCCN1c1nc(C(=O)Nc2cnoc2)c(O)c(=O)n1C [Example 110, (R)-2-(2-(dimethylcarbamoyl)pyrrolidin-1-yl)-5-hydroxy-N-(isoxazol-4-yl)-1-methyl-6-oxo-1,6-dihydropyrimidine-4-carboxamide]"
0.1 to 1 µM,10 to 100 µM,"Cn1c(N2CCC[C@H](C(N)=O)C2)nc(C(=O)Nc2cnoc2)c(O)c1=O [Example 119, (S)-2-(3-carbamoylpiperidin-1-yl)-5-hydroxy-N-(isoxazol-4-yl)-1-methyl-6-oxo-1,6-dihydropyrimidine-4-carboxamide]"
< 0.1 µM,< 1 µM,"Cn1c(N2CCN(c3ccccn3)C[C@@H]2c2ccccc2Cl)nc(C(=O)Nc2cnoc2)c(O)c1=O [Example 125, (S)-2-(2-(2-chlorophenyl)-4-(pyridin-2-yl)piperazin-1-yl)-5-hydroxy-N-(isoxazol-4-yl)-1-methyl-6-oxo-1,6-dihydropyrimidine-4-carboxamide]"
0.1 to 1 µM,10 to 100 µM,"Cn1c(C2CCCN(C(=O)c3cn[nH]c3)C2)nc(C(=O)Nc2cnoc2)c(O)c1=O (stereo not drawn) [Example 94, 2-(1-(1H-pyrazole-4-carbonyl)piperidin-3-yl)-5-hydroxy-N-(isoxazol-4-yl)-1-methyl-6-oxo-1,6-dihydropyrimidine-4-carboxamide]"
< 0.1 µM,10 to 100 µM,"Cn1c(N2CC[C@H](c3ccccc3)C2)nc(C(=O)Nc2cnoc2)c(O)c1=O [Example 108, (R)-5-hydroxy-N-(isoxazol-4-yl)-1-methyl-6-oxo-2-(3-phenylpyrrolidin-1-yl)-1,6-dihydropyrimidine-4-carboxamide]"

# Further lines, the compound ahead of its results:
SMILES,IC50 [1],IC50 [2]
"Cn1c(C2CCCN(S(C)(=O)=O)C2)nc(C(=O)Nc2cnoc2)c(O)c1=O (stereo not drawn) [Example 87, 5-hydroxy-N-(isoxazol-4-yl)-1-methyl-2-(1-(methylsulfonyl)piperidin-3-yl)-6-oxo-1,6-dihydropyrimidine-4-carboxamide]",1 to 10 µM,10 to 100 µM
"CC(C)(C)OC(=O)N1CCCC(c2nc(C(=O)Nc3cnoc3)c(O)c(=O)[nH]2)C1 (stereo not drawn) [Example 16, tert-butyl 3-(5-hydroxy-4-(isoxazol-4-ylcarbamoyl)-6-oxo-1,6-dihydropyrimidin-2-yl)piperidine-1-carboxylate]",0.1 to 1 µM,10 to 100 µM
"Cc1cc(C(=O)N(C)C)cc(-c2nc(C(=O)Nc3cnoc3)c(O)c(=O)n2C)c1 [Example 36, 2-(3-(dimethylcarbamoyl)-5-methylphenyl)-5-hydroxy-N-(isoxazol-4-yl)-1-methyl-6-oxo-1,6-dihydropyrimidine-4-carboxamide]",0.1 to 1 µM,10 to 100 µM
"Cn1c([C@H]2CCN(C(=O)c3ccc(Cl)cc3)C2)nc(C(=O)Nc2cnoc2)c(O)c1=O [Example 85, (S)-2-(1-(4-chlorobenzoyl)pyrrolidin-3-yl)-5-hydroxy-N-(isoxazol-4-yl)-1-methyl-6-oxo-1,6-dihydropyrimidine-4-carboxamide]",0.1 to 1 µM,10 to 100 µM
"Cn1c(-c2ccccc2Br)nc(C(=O)Nc2cnoc2)c(O)c1=O [Example 9, 2-(2-bromophenyl)-5-hydroxy-N-(isoxazol-4-yl)-1-methyl-6-oxo-1,6-dihydropyrimidine-4-carboxamide]",0.1 to 1 µM,10 to 100 µM
"Cn1c(C2CCCN(C(=O)c3ccccc3Cl)C2)nc(C(=O)Nc2cnoc2)c(O)c1=O (stereo not drawn) [Example 46, 2-(1-(2-chlorobenzoyl)piperidin-3-yl)-5-hydroxy-N-(isoxazol-4-yl)-1-methyl-6-oxo-1,6-dihydropyrimidine-4-carboxamide]",0.1 to 1 µM,10 to 100 µM
"Cn1nc(CCO)c(-c2nc(C(=O)Nc3cnoc3)c(O)c(=O)n2C)n1 [Example 73, 5-hydroxy-2-(5-(2-hydroxyethyl)-2-methyl-2H-1,2,3-triazol-4-yl)-N-(isoxazol-4-yl)-1-methyl-6-oxo-1,6-dihydropyrimidine-4-carboxamide]",0.1 to 1 µM,10 to 100 µM
